Data taken from ChEMBL document CHEMBL1131787, “Effects of ortho-substituent groups of sulochrin on inhibitory activity to eosinophil degranulation” (Bioorg Med Chem Lett, 1999).
pIC50: −log10 of the molar value.

test: Inhibitory activity against eosinophil degranulation; format: functional

SMILES	pIC50
COC(=O)c1cc(O)cc(O)c1C(=O)c1c(O)cc(C)cc1O	< 5.00
CCCCCCOC(=O)c1cc(O)cc(OC)c1C(=O)c1c(O)cc(C)cc1O	6.52
COc1cc(O)ccc1C(=O)c1c(O)cc(C)cc1O	< 5.00
COc1cc(O)cc(C(=O)O)c1C(=O)c1c(O)cc(C)cc1O	< 5.00
COC(=O)c1cc(O)cc(OC)c1C(=O)c1c(O)cc(C)cc1OC	6.52
COC(=O)c1cc(O)cc(O)c1C(=O)c1c(OC)cc(C)cc1OC	< 5.00
COC(=O)c1cc(O)cc(OC)c1C(=O)c1c(OCCO)cc(C)cc1OCCO	< 5.00
COC(=O)c1cc(O)cc(OC)c1C(=O)c1c(O)cc(C)cc1O [SULOCHRIN]	7.00
CCCCOC(=O)c1cc(O)cc(OC)c1C(=O)c1c(O)cc(C)cc1O	7.40
CCC(C)OC(=O)c1cc(O)cc(OC)c1C(=O)c1c(O)cc(C)cc1O (stereo not drawn)	7.52
CCCOC(=O)c1cc(O)cc(OC)c1C(=O)c1c(O)cc(C)cc1O	7.00
CCOC(=O)c1cc(O)cc(OC)c1C(=O)c1c(O)cc(C)cc1O	7.00
COC(=O)c1cc(O)cc(O)c1C(=O)c1c(O)cc(C)cc1OC	6.40
